Test results: patent publication US20090232913A1, “Composition for the Control of Cholesterol Levels” (priority 2005, published 2009)
“Also recorded” adds a separate entry of the source.

How the values were obtained:
[1] = system: normoglycaemic rats; assay: C peptide serum concentration in normoglycaemic rats; assay type: in vivo, Wistar rats; details: non-diabetic rats; treatment for 5 days
Method: In this study white, adult male Wistar rats with average weights between 200 to 300 grams were used. During the study, the animals had free access to food and water and were exposed to changes of dark and light every 12 hours. Access to the food was restricted 12 hours before measurement of glucose blood level with free access to water. The experiment was performed on a normoglycaemic group (Group 1, 32 rats, 8 per treatment) and diabetic rats (Group 2, 32 rats, 8 per treatment). For the diabetic rat experiments diabetes was induced with intraperitoneal injection of alloxan 100 mg/kg. Alloxan is very well verified diabetogenic substance for inducing diabetes in rats and other animal species (rabbit, dog, mice et […]). See, for example, […]. Coil Physicians Edinb, 32: 134-142, 2002; […], Diabetologia, 31: 337-342, 1988; Shaw et al., Lancet, 11: 384-386, 1943; Goldner & Gomori, Endocrinology, 35: 241-268, 1943. 1). Saline solution, 1 ml/kg, per orally, daily for 5 days (control group); 2). Stevioside, 20 mg/kg, orally, daily for 5 days; 3). […] 15 minutes after the 5th dose, the animals were exposed to an oral glucose tolerance test (OGTT) using 4 g/kg, orally. Glucose blood concentrations were measured before the treatment, after the 5th dose, before OGTT, and 30 minutes after OGTT. […] The following were measured in serum: 1). […]

[2] = system: diabetic rats; assay: Serum cholesterol and lipid profile in diabetic rats after 5 days treatment; assay type: in vivo, Wistar rats; details: for Effect on LDL cholesterol levels: treatment for 5 days
Method: In this study white, adult male Wistar rats with average weights between 200 to 300 grams were used. During the study, the animals had free access to food and water and were exposed to changes of dark and light every 12 hours. Access to the food was restricted 12 hours before measurement of glucose blood level with free access to water. The experiment was performed on a normoglycaemic group (Group 1, 32 rats, 8 per treatment) and diabetic rats (Group 2, 32 rats, 8 per treatment). For the diabetic rat experiments diabetes was induced with intraperitoneal injection of alloxan 100 mg/kg. Alloxan is very well verified diabetogenic substance for inducing diabetes in rats and other animal species (rabbit, dog, mice et […]). See, for example, […]. Coil Physicians Edinb, 32: 134-142, 2002; […], Diabetologia, 31: 337-342, 1988; Shaw et al., Lancet, 11: 384-386, 1943; Goldner & Gomori, Endocrinology, 35: 241-268, 1943. 1). Saline solution, 1 ml/kg, per orally, daily for 5 days (control group); 2). Stevioside, 20 mg/kg, orally, daily for 5 days; 3). […] In the diabetic rat the criterion for successful diabetes induction was blood glucose greater than 20 mmol/L on the third day after the last alloxan dose after 3 hours of fasting with free access to water. 15 minutes after the 5th dose, the animals were exposed to an oral glucose tolerance test (OGTT) using 4 g/kg, orally. Glucose blood concentrations were measured before the treatment, after the 5th dose, before OGTT, and 30 minutes after OGTT. Then the animals were anaesthetised with urethane injected intraperitoneally, 750 mg/kg, and blood samples for further biochemical analyses were taken by cardiopunction. All biochemical analyses of serum were done by standard procedures, as recommended by the International Federation for Clinical Chemistry (IFCC), on automatic spectrophotometer LISA 300 plus with International Quality Control. The following were measured in serum: 1). Triglycerides concentration (GPO-PAP kit obtained from Boehringer Mannheim GmbH (Mannheim, Germany) in accordance with the manufacturers instructions) 2). […] C-peptide concentration. […] Generally the desired outcome was a decrease in low density lipoprotein (LDL), with no concomitant decrease in high density lipoprotein (HDL). It was also hypothesised that there would be a compatibility with glycaemic effects shown in Example 2. The experimental procedures were essentially those described in Example 2.

[3] = system: normoglycaemic rats; assay: Serum cholesterol and lipid profile in normoglycaemic rats after 5 days treatment; assay type: in vivo, Wistar rats; details: for Changes in HDL serum cholesterol concentrations / Changes in total cholesterol in serum concentrations / LDL serum cholesterol concentrations relative to control values: normoglycaemic / non-diabetic rats, 5 days treatment
Method: In this study white, adult male Wistar rats with average weights between 200 to 300 grams were used. During the study, the animals had free access to food and water and were exposed to changes of dark and light every 12 hours. Access to the food was restricted 12 hours before measurement of glucose blood level with free access to water. The experiment was performed on a normoglycaemic group (Group 1, 32 rats, 8 per treatment) and diabetic rats (Group 2, 32 rats, 8 per treatment). For the diabetic rat experiments diabetes was induced with intraperitoneal injection of alloxan 100 mg/kg. Alloxan is very well verified diabetogenic substance for inducing diabetes in rats and other animal species (rabbit, dog, mice et […]). See, for example, […]. Coil Physicians Edinb, 32: 134-142, 2002; […], Diabetologia, 31: 337-342, 1988; Shaw et al., Lancet, 11: 384-386, 1943; Goldner & Gomori, Endocrinology, 35: 241-268, 1943. 1). Saline solution, 1 ml/kg, per orally, daily for 5 days (control group); 2). Stevioside, 20 mg/kg, orally, daily for 5 days; 3). […] 15 minutes after the 5th dose, the animals were exposed to an oral glucose tolerance test (OGTT) using 4 g/kg, orally. Glucose blood concentrations were measured before the treatment, after the 5th dose, before OGTT, and 30 minutes after OGTT. Then the animals were anaesthetised with urethane injected intraperitoneally, 750 mg/kg, and blood samples for further biochemical analyses were taken by cardiopunction. All biochemical analyses of serum were done by standard procedures, as recommended by the International Federation for Clinical Chemistry (IFCC), on automatic spectrophotometer LISA 300 plus with International Quality Control. The following were measured in serum: 1). Triglycerides concentration (GPO-PAP kit obtained from Boehringer Mannheim GmbH (Mannheim, Germany) in accordance with the manufacturers instructions) 2). […] C-peptide concentration. […] Generally the desired outcome was a decrease in low density lipoprotein (LDL), with no concomitant decrease in high density lipoprotein (HDL). It was also hypothesised that there would be a compatibility with glycaemic effects shown in Example 2. The experimental procedures were essentially those described in Example 2.

[4] = system: diabetic rats; assay: Serum cholesterol concentrations after 7 day oral treatment of diabetic rats (lovastatin, MKH, combination); assay type: in vivo; details: for Effect on total cholesterol: 7 day oral dosage; for Effect on HDL levels: 7 days, MKH at 2 mg/kg
Excerpt: This is significant as HDLs are protective against heart disease (Despres et al., 2000, Atherosclerosis 153: 263-272). […] This is important as low LDL levels are associated with decreased risk of heart disease.

[5] = system: diabetic Wistar rats; assay: Blood glucose and OGTT in alloxan-induced diabetic rats; assay type: in vivo; details: 5 days oral treatment
Method: In this study white, adult male Wistar rats with average weights between 200 to 300 grams were used. During the study, the animals had free access to food and water and were exposed to changes of dark and light every 12 hours. Access to the food was restricted 12 hours before measurement of glucose blood level with free access to water. The experiment was performed on a normoglycaemic group (Group 1, 32 rats, 8 per treatment) and diabetic rats (Group 2, 32 rats, 8 per treatment). For the diabetic rat experiments diabetes was induced with intraperitoneal injection of alloxan 100 mg/kg. Alloxan is very well verified diabetogenic substance for inducing diabetes in rats and other animal species (rabbit, dog, mice et […]). See, for example, […]. Coil Physicians Edinb, 32: 134-142, 2002; […], Diabetologia, 31: 337-342, 1988; Shaw et al., Lancet, 11: 384-386, 1943; Goldner & Gomori, Endocrinology, 35: 241-268, 1943. 1). Saline solution, 1 ml/kg, per orally, daily for 5 days (control group); 2). Stevioside, 20 mg/kg, orally, daily for 5 days; 3). […] In the diabetic rat the criterion for successful diabetes induction was blood glucose greater than 20 mmol/L on the third day after the last alloxan dose after 3 hours of fasting with free access to water. […] Glucose blood concentrations were measured before the treatment, after the 5th dose, before OGTT, and 30 minutes after OGTT. […]

[6] = system: diabetic rats; assay: C peptide serum concentration in diabetic rats; assay type: in vivo, Wistar rats; details: treatment for 5 days
Method: In this study white, adult male Wistar rats with average weights between 200 to 300 grams were used. During the study, the animals had free access to food and water and were exposed to changes of dark and light every 12 hours. Access to the food was restricted 12 hours before measurement of glucose blood level with free access to water. The experiment was performed on a normoglycaemic group (Group 1, 32 rats, 8 per treatment) and diabetic rats (Group 2, 32 rats, 8 per treatment). For the diabetic rat experiments diabetes was induced with intraperitoneal injection of alloxan 100 mg/kg. Alloxan is very well verified diabetogenic substance for inducing diabetes in rats and other animal species (rabbit, dog, mice et […]). See, for example, […]. Coil Physicians Edinb, 32: 134-142, 2002; […], Diabetologia, 31: 337-342, 1988; Shaw et al., Lancet, 11: 384-386, 1943; Goldner & Gomori, Endocrinology, 35: 241-268, 1943. 1). Saline solution, 1 ml/kg, per orally, daily for 5 days (control group); 2). Stevioside, 20 mg/kg, orally, daily for 5 days; 3). […] Glucose blood concentrations were measured before the treatment, after the 5th dose, before OGTT, and 30 minutes after OGTT. […] The following were measured in serum: 1). […]

| SMILES | Effect on C peptide levels [1] | Changes in total cholesterol in serum concentrations ([2]; 5 days treatment) | Effect on LDL:HDL ratio ([2]; 5 days treatment) | Effect on HDL levels ([2]; 5 days, MKH at 4 mg/kg) | LDL: HDL Ratio (ratios of means) ([2]; n = 8, after 5 days treatment) | Effect on LDL cholesterol levels [2] | Changes in HDL serum cholesterol concentrations [3] | Changes in total cholesterol in serum concentrations [3] | LDL serum cholesterol concentrations relative to control values [3] | LDL: HDL Ratio (ratios of means) ([3]; normoglycaemic rats, n = 8, after 5 days treatment) | Effect on total cholesterol [4] | Effect on LDL levels ([4]; 7 days oral treatment, MKH 2 mg/kg, Lovastatin 20 mg/kg) | Effect on HDL levels ([4]; Lovastatin 20 mg/kg) | Effect on LDL:HDL ratio ([4]; by Day 7) | Effect on glucose levels both before and after the OGTT [5] | Effect on C-peptide [6] |
| --- | --- | --- | --- | --- | --- | --- | --- | --- | --- | --- | --- | --- | --- | --- | --- | --- |
| C[C@H](CCC(=O)O)[C@H]1CC[C@H]2[C@@H]3[C@H](O)C[C@@H]4C[C@H](O)CC[C@]4(C)[C@H]3CC(=O)[C@]12C [MKH, 3α,7α-dihydroxy-12-oxo-5β-cholanate] | Neither stevioside or 3α,7α-dihydroxy-12-oxo-5β-cholanate alone had statistically significant effects | no significant changes | slight increase in LDL:HDL ratio | A decrease was observed | 1.12 | decreases in LDL levels and while these were not statistically significant | no significant changes | no significant changes | significantly decreased (one third of control values) | 0.01 | reduced total cholesterol by a similar amount | very highly significant decrease in LDL levels; also recorded: significantly greater than that achieved by Lovastatin | this effect was not observed; also recorded: did not do so | significant decrease in the LDL:HDL ratio | significant decrease in glucose levels |  |
| CC[C@H](C)C(=O)O[C@H]1C[C@@H](C)C=C2C=C[C@H](C)[C@H](CC[C@@H]3C[C@@H](O)CC(=O)O3)[C@H]21 [Lovastatin, reference compound] |  |  |  |  |  |  |  |  |  |  | reduced total cholesterol by a similar amount |  | reduced HDLs significantly |  |  |  |
| C=C1C[C@@]23CC[C@H]4[C@@](C)(CCC[C@@]4(C)C(=O)O[C@@H]4O[C@H](CO)[C@@H](O)[C@H](O)[C@H]4O)[C@@H]2CC[C@]1(O[C@@H]1O[C@H](CO)[C@@H](O)[C@H](O)[C@H]1O[C@@H]1O[C@H](CO)[C@@H](O)[C@H](O)[C@H]1O)C3 [Stevioside, stevioside] | Neither stevioside or 3α,7α-dihydroxy-12-oxo-5β-cholanate alone had statistically significant effects | no significant changes |  |  |  | highly significant decrease in LDL cholesterol levels | no significant changes | no significant changes | significantly decreased (one third of control values) |  |  |  |  |  |  | significant increases in C-peptide |
